According to ChEMBL document CHEMBL1152976, “Dracotanosides A-D, spermidine glycosides from Dracocephalum tanguticum: structure and amide rotational barrier” (J Nat Prod, 2009):

What was measured:
[1] = system: K562; assay: Cytotoxicity against human drug-sensitive K562 cells after 48 hrs by MTT assay; assay type: functional, cell-based; settings: K562, 48 h
[2] = Cytotoxicity against human drug-resistant K562/A02 cells after 48 hrs by MTT assay; assay type: functional, cell-based; settings: K562/A02, 48 h

Compound	IC50 [1] [µM]	IC50 [2] [µM]
O=C1CCN[C@@H](c2ccc(O)cc2)CCCN(C(=O)/C=C\c2ccccc2)CCCN1	> 200	> 200
C[C@@H]1O[C@@H](Oc2ccc([C@H]3CCCN(C(=O)/C=C\c4ccccc4)CCCNC(=O)CCN3)cc2)[C@H](O[C@@H]2O[C@H](COC(=O)c3ccccc3)[C@@H](O)[C@H](O)[C@H]2O)[C@H](O)[C@H]1O [DRACOTANOSIDE A]	> 200	> 200
C[C@@H]1O[C@@H](Oc2ccc([C@H]3CCCN(C(=O)/C=C/c4ccccc4)CCCNC(=O)CCN3)cc2)[C@H](O[C@@H]2O[C@H](COC(=O)c3ccccc3)[C@@H](O)[C@H](O)[C@H]2O)[C@H](O)[C@H]1O [DRACOTANOSIDE B]	> 200	> 200
C[C@H]1O[C@@H](Oc2ccc([C@H]3CCCN(C(=O)/C=C\c4ccccc4)CCCNC(=O)CCN3)cc2)[C@@H](O)[C@@H](O)[C@@H]1O [DRACOTANOSIDE C]	> 200	> 200
C[C@H]1O[C@@H](Oc2ccc([C@H]3CCCN(C(=O)/C=C/c4ccccc4)CCCNC(=O)CCN3)cc2)[C@@H](O)[C@@H](O)[C@@H]1O [DRACOTANOSIDE D]	> 200	> 200
